{"source": "BindingDB's records for doi:10.1007/pl00005315", "about": "(Eli Lilly, 1999)", "key": {"[1]": {"target": "5-hydroxytryptamine receptor 2B (Homo sapiens, UniProt P41595)", "sequence (P41595 whole entry)": "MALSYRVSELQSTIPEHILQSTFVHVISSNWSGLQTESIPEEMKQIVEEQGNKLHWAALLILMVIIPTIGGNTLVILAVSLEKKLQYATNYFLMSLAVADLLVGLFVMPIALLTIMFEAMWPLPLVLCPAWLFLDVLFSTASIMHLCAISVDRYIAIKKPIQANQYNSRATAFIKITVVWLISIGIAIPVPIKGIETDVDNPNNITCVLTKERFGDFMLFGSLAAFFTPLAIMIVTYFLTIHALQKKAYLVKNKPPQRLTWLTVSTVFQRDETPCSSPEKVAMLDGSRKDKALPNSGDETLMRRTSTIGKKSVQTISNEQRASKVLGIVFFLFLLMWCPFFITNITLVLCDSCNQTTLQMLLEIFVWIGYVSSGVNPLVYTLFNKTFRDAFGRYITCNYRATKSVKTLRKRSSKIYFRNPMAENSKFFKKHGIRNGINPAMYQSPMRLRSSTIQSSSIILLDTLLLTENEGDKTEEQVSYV"}, "[2]": {"target": "5-hydroxytryptamine receptor 2A (Homo sapiens, UniProt P28223)", "sequence (P28223 whole entry)": "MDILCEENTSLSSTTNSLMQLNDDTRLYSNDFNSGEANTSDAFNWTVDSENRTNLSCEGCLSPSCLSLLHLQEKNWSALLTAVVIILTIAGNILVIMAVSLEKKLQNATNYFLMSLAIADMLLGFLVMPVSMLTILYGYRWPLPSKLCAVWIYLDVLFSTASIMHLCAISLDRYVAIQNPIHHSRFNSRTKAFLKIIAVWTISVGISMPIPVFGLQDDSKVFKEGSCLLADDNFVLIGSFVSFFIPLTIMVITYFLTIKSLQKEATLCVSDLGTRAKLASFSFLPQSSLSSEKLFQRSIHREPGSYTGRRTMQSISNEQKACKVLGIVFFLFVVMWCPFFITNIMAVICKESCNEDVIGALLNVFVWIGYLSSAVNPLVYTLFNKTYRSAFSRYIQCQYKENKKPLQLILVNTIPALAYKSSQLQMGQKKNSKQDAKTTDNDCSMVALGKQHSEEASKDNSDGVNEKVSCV"}, "[3]": {"target": "T1, 5-hydroxytryptamine receptor 2C (Homo sapiens, UniProt P28335)", "T1 sequence (P28335 whole entry)": "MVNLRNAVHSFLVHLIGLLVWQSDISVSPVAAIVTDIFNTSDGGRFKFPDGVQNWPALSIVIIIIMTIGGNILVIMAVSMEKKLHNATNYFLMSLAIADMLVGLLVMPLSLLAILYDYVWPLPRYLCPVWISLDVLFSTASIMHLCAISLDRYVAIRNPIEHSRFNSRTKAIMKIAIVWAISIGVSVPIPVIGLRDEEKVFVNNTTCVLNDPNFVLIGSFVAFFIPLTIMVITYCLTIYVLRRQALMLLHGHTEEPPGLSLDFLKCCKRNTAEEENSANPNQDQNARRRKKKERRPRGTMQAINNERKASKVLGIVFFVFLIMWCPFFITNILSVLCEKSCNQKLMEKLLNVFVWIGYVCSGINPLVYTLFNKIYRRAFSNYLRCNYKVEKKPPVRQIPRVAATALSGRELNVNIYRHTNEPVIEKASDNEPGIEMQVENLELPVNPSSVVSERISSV"}, "[4]": {"target": "5-hydroxytryptamine receptor 2B (Rattus norvegicus, UniProt P30994)", "sequence (P30994 whole entry)": "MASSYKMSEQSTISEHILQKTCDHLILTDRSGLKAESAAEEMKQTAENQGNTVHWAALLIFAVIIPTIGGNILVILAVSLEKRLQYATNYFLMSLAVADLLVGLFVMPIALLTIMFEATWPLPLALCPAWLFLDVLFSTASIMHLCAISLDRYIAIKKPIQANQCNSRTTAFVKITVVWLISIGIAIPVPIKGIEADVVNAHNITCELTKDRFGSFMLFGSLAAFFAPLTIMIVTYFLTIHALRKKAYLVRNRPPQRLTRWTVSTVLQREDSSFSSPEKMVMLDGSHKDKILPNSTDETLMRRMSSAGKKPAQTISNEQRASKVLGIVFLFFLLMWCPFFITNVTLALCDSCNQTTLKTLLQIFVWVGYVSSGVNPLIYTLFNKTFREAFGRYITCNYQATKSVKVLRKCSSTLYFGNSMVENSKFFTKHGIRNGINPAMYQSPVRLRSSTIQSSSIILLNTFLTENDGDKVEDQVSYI"}}}
{"smiles": "COc1cc(C(C)(C)C)c(OC)cc1CC(C)N", "note": "(configuration not stated) [DOTB]", "values": [{"measurement": "Ki", "setting": "[1]", "result": 24.6, "unit": "nM"}, {"measurement": "Ki", "setting": "[2]", "result": 3.7, "unit": "nM"}, {"measurement": "Ki", "setting": "[3]", "result": 2.2, "unit": "nM"}, {"measurement": "Ki", "setting": "[4]", "result": 49.6, "unit": "nM"}]}
{"smiles": "COc1cc(CC(C)[N+](C)(C)C)c(OC)cc1Br", "note": "(configuration not stated) [N,N,N-trimethyl-1-(4-bromo-2,5-dimethoxyphenyl)-2-aminopropane]", "values": [{"measurement": "Ki", "setting": "[1]", "result": "> 10000", "unit": "nM"}, {"measurement": "Ki", "setting": "[2]", "result": 2150, "unit": "nM"}, {"measurement": "Ki", "setting": "[3]", "result": 6300, "unit": "nM"}, {"measurement": "Ki", "setting": "[4]", "result": "> 10000", "unit": "nM"}]}
{"smiles": "CCCCCCc1cc(OC)c(CC(C)N)cc1OC", "note": "(configuration not stated) [DOHx]", "values": [{"measurement": "Ki", "setting": "[1]", "result": 30.3, "unit": "nM"}, {"measurement": "Ki", "setting": "[2]", "result": 0.1, "unit": "nM"}, {"measurement": "Ki", "setting": "[3]", "result": 0.7, "unit": "nM"}, {"measurement": "Ki", "setting": "[4]", "result": 49, "unit": "nM"}]}
{"smiles": "CCCNC(C)Cc1cc(OC)c(Br)cc1OC", "note": "(configuration not stated)", "values": [{"measurement": "Ki", "setting": "[1]", "result": 521, "unit": "nM"}, {"measurement": "Ki", "setting": "[3]", "result": 514, "unit": "nM"}, {"measurement": "Ki", "setting": "[4]", "result": 976, "unit": "nM"}]}
{"smiles": "COc1cc(CC(C)N)c(OC)cc1C#N", "note": "(configuration not stated)", "values": [{"measurement": "Ki", "setting": "[1]", "result": 774, "unit": "nM"}, {"measurement": "Ki", "setting": "[2]", "result": 45.7, "unit": "nM"}, {"measurement": "Ki", "setting": "[3]", "result": 1010, "unit": "nM"}, {"measurement": "Ki", "setting": "[4]", "result": 877, "unit": "nM"}]}
{"smiles": "COc1cc(CC(C)N)cc(OC)c1OC", "note": "(configuration not stated)", "values": [{"measurement": "Ki", "setting": "[1]", "result": 307, "unit": "nM"}, {"measurement": "Ki", "setting": "[2]", "result": 57.9, "unit": "nM"}, {"measurement": "Ki", "setting": "[4]", "result": 187, "unit": "nM"}]}
{"smiles": "COCCOCCl", "note": "[CAS_3970-21-6]", "values": [{"measurement": "Ki", "setting": "[1]", "result": 763, "unit": "nM"}, {"measurement": "Ki", "setting": "[2]", "result": 73, "unit": "nM"}, {"measurement": "Ki", "setting": "[3]", "result": 124, "unit": "nM"}, {"measurement": "Ki", "setting": "[4]", "result": 1130, "unit": "nM"}]}
{"smiles": "COc1cc(C(C)=O)c(OC)cc1CC(C)N", "note": "(configuration not stated) [1-(4-acetyl-2,5-dimethoxyphenyl)-2-aminopropane]", "values": [{"measurement": "Ki", "setting": "[1]", "result": 313, "unit": "nM"}, {"measurement": "Ki", "setting": "[2]", "result": 80.5, "unit": "nM"}, {"measurement": "Ki", "setting": "[3]", "result": 91.3, "unit": "nM"}, {"measurement": "Ki", "setting": "[4]", "result": 947, "unit": "nM"}]}
{"smiles": "CCCc1cc(OC)c(CC(C)N)cc1OC", "note": "(configuration not stated) [2-(2,5-Dimethoxy-4-propyl-phenyl)-1-methyl-ethylamine(DOPR)]", "values": [{"measurement": "Ki", "setting": "[1]", "result": 54.4, "unit": "nM"}, {"measurement": "Ki", "setting": "[2]", "result": 0.9, "unit": "nM"}, {"measurement": "Ki", "setting": "[3]", "result": 1.1, "unit": "nM"}, {"measurement": "Ki", "setting": "[4]", "result": 115, "unit": "nM"}]}
{"smiles": "COc1ccc(OC)c(CC(C)N)c1", "note": "(configuration not stated) [2-(2,5-Dimethoxy-phenyl)-1-methyl-ethylamine]", "values": [{"measurement": "Ki", "setting": "[1]", "result": 1040, "unit": "nM"}, {"measurement": "Ki", "setting": "[3]", "result": 104, "unit": "nM"}]}
{"smiles": "C[C@]12CC[C@H]3[C@@H](CCC4=CC(=O)CC[C@@]43C)[C@@H]1CC[C@@H]2C(=O)CO", "note": "[(1S,2R,10S,11S,14S,15S)-14-(2-hydroxyacetyl)-2,15-dimethyltetracyclo[8.7.0.0^{2,7}.0^{11,15}]heptadec-6-en-5-one]", "values": [{"measurement": "Ki", "setting": "[1]", "result": 31.8, "unit": "nM"}, {"measurement": "Ki", "setting": "[2]", "result": 1.4, "unit": "nM"}, {"measurement": "Ki", "setting": "[3]", "result": 2, "unit": "nM"}, {"measurement": "Ki", "setting": "[4]", "result": 26.8, "unit": "nM"}]}
{"smiles": "COc1cc(CC(C)N)c(OC)cc1Cc1ccccc1", "note": "(configuration not stated)", "values": [{"measurement": "Ki", "setting": "[1]", "result": 35, "unit": "nM"}, {"measurement": "Ki", "setting": "[2]", "result": 0.4, "unit": "nM"}, {"measurement": "Ki", "setting": "[3]", "result": 1, "unit": "nM"}, {"measurement": "Ki", "setting": "[4]", "result": 53.8, "unit": "nM"}]}
{"smiles": "COc1cc(CC(C)N)c(OC)cc1Br", "note": "(stereo not drawn) [2-(4-Bromo-2,5-dimethoxy-phenyl)-1-methyl-ethylamine((-)-DOB)]", "values": [{"measurement": "Ki", "setting": "[1]", "result": 26.9, "unit": "nM"}]}
{"smiles": "COc1cc(CC(C)N)c(OC)cc1F", "note": "(configuration not stated)", "values": [{"measurement": "Ki", "setting": "[1]", "result": 227, "unit": "nM"}, {"measurement": "Ki", "setting": "[2]", "result": 41.7, "unit": "nM"}, {"measurement": "Ki", "setting": "[3]", "result": 28.7, "unit": "nM"}, {"measurement": "Ki", "setting": "[4]", "result": 306, "unit": "nM"}]}
{"smiles": "COc1cc([N+](=O)[O-])c(OC)cc1CC(C)N", "note": "(configuration not stated) [DON]", "values": [{"measurement": "Ki", "setting": "[1]", "result": 166, "unit": "nM"}, {"measurement": "Ki", "setting": "[2]", "result": 5.5, "unit": "nM"}, {"measurement": "Ki", "setting": "[3]", "result": 22.4, "unit": "nM"}, {"measurement": "Ki", "setting": "[4]", "result": 248, "unit": "nM"}]}
{"smiles": "COc1cc(CC(C)N(C)C)c(OC)cc1Br", "note": "(configuration not stated) [M-154]", "values": [{"measurement": "Ki", "setting": "[1]", "result": 341, "unit": "nM"}, {"measurement": "Ki", "setting": "[2]", "result": 94.2, "unit": "nM"}, {"measurement": "Ki", "setting": "[3]", "result": 68.1, "unit": "nM"}, {"measurement": "Ki", "setting": "[4]", "result": 683, "unit": "nM"}]}
